Reference: US11629143B2, “HipK4 inhibitors and uses thereof” (Vibliome Therapeutics, LLC, priority 2020, dated 2023)

What was measured:
Assay in all cases: Kinase panel (mobility shift)
Assay type in all cases: biochemical
TIE2 = TIE2 (Homo sapiens, UniProt Q02763)
Procedure, shortened: (§1)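 Compound at 5 um + kinase + fluor-labeled substrate, standardized mix; rxn stopped; electrophoretic separation of product/substrate on chip; activity = product vs substrate peak fluorescence. Bins A ≥95%, B 90-94%, C 80-89%.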

EPH-A5 = EPH-A5 (Homo sapiens, UniProt P54756); settings: at 5 um
Sequence of EPH-A5 (P54756 25-1037, species assumed): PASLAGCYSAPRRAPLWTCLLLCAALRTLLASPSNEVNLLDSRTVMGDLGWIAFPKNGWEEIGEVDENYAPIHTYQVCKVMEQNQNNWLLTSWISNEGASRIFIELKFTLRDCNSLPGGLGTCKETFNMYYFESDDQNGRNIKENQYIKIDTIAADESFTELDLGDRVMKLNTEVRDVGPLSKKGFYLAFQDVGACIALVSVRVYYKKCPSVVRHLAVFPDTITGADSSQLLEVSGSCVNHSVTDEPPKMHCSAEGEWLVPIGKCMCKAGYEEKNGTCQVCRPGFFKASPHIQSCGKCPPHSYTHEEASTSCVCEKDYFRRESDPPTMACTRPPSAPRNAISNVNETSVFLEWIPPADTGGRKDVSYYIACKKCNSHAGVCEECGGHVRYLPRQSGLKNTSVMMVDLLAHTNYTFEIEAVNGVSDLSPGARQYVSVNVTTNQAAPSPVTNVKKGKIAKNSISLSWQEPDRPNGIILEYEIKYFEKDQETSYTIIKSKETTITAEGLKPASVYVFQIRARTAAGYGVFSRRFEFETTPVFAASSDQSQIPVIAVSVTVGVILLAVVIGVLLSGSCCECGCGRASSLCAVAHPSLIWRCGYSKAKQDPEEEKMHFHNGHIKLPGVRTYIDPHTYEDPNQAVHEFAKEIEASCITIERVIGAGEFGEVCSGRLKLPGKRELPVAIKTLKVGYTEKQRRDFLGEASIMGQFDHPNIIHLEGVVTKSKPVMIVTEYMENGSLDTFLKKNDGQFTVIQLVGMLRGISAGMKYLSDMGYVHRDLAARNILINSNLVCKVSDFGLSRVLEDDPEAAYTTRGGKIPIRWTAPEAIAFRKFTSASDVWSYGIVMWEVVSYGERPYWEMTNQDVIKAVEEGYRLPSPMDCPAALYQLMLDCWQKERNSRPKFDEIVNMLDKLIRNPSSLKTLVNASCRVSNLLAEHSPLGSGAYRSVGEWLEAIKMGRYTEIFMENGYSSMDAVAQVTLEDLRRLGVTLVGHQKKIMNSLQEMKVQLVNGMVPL
Procedure, shortened: as §1

SRC = SRC (Homo sapiens, UniProt P12931)
Sequence of SRC (P12931 whole entry, species assumed): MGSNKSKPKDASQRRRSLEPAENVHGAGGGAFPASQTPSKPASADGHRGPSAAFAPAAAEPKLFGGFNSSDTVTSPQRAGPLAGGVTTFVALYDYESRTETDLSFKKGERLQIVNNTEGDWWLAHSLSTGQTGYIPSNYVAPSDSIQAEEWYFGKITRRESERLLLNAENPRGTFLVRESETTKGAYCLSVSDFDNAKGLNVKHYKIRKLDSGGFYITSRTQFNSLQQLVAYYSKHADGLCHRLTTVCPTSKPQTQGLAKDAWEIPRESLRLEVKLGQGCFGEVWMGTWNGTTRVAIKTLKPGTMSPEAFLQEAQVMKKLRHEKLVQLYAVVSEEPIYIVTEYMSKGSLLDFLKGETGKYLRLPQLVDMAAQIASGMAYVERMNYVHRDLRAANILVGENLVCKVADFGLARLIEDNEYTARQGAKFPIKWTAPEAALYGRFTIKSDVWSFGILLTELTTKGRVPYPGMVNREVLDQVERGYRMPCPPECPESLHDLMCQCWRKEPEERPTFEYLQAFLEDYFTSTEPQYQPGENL
Procedure, shortened: as §1

MER = molecular target: T1, MER (Homo sapiens, UniProt Q12866)
T1 sequence (Q12866 21-999): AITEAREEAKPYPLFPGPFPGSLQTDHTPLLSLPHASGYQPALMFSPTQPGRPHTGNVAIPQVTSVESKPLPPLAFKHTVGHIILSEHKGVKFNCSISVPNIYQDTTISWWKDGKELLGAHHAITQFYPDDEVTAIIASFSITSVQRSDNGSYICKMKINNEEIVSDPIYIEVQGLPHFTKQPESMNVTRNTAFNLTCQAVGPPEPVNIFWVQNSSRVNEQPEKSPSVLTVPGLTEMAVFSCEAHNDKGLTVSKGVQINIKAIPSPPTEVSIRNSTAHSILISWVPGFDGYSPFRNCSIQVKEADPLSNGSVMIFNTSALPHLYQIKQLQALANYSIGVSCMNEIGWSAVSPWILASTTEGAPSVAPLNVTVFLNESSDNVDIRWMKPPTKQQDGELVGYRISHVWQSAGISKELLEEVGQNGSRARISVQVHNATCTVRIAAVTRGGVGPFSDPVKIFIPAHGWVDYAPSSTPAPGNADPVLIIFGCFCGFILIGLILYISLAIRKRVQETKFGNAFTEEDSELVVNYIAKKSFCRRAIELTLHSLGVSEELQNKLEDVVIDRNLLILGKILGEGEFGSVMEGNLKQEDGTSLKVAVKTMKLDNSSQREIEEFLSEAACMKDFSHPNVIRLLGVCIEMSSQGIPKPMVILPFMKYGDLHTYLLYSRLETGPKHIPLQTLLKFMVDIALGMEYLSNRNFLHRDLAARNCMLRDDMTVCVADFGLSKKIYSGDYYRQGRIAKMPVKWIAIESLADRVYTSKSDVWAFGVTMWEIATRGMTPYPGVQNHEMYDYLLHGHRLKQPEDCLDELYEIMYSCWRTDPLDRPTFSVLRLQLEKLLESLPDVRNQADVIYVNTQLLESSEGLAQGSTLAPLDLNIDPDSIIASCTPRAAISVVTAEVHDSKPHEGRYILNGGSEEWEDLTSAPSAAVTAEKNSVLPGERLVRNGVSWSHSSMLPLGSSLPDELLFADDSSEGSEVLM
Procedure, shortened: as §1

P38-b = P38-b (Homo sapiens, UniProt Q15759)
Sequence of P38-b (Q15759 whole entry, species assumed): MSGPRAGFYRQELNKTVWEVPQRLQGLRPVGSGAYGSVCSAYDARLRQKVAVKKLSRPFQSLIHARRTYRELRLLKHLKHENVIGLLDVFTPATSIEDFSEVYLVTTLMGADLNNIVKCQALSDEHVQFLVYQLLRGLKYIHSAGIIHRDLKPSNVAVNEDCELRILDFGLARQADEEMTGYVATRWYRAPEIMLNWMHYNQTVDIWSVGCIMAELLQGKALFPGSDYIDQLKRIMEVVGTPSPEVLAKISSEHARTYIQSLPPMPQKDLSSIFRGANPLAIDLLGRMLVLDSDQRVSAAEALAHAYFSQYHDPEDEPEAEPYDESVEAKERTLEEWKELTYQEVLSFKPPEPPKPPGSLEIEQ
Procedure, shortened: as §1

HIPK4 = molecular target: T2, HIPK4 (Homo sapiens, UniProt Q8NE63)
T2 sequence (Q8NE63 1-616): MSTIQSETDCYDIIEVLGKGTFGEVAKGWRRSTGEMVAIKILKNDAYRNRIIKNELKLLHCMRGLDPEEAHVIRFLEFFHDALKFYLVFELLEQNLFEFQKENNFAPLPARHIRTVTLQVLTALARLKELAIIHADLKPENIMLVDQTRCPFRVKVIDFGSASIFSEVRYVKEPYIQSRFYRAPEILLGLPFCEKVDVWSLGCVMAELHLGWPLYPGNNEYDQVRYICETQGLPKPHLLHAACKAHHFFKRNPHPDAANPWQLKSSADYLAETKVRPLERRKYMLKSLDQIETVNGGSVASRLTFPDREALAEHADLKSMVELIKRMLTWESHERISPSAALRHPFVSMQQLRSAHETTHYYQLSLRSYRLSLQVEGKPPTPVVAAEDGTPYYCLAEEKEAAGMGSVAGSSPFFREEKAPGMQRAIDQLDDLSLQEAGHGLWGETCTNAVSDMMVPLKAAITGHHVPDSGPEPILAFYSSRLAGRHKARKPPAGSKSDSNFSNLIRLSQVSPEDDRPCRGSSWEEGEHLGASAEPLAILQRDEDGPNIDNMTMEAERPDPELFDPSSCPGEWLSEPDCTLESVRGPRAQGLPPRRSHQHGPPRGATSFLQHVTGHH
Procedure, shortened: as §1

LCK = LCK (Homo sapiens, UniProt P06239)
Sequence of LCK (P06239 whole entry, species assumed): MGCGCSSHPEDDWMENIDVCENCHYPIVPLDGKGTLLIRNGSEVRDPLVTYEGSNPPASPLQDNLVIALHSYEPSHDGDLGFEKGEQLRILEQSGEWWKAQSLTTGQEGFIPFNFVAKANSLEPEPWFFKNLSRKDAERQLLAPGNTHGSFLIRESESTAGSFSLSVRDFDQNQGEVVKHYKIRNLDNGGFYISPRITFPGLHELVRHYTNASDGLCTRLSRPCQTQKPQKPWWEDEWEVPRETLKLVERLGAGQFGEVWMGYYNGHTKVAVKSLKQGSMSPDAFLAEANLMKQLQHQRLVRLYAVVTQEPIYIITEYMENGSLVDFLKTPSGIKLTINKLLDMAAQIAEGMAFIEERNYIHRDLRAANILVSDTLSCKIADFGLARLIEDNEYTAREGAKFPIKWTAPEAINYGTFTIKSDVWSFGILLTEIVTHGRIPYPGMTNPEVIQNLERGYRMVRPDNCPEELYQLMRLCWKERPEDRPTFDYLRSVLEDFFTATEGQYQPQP
Procedure, shortened: as §1

PDGFR-b = PDGFR-b (Homo sapiens, UniProt P09619)
Sequence of PDGFR-b (P09619 33-1106, species assumed): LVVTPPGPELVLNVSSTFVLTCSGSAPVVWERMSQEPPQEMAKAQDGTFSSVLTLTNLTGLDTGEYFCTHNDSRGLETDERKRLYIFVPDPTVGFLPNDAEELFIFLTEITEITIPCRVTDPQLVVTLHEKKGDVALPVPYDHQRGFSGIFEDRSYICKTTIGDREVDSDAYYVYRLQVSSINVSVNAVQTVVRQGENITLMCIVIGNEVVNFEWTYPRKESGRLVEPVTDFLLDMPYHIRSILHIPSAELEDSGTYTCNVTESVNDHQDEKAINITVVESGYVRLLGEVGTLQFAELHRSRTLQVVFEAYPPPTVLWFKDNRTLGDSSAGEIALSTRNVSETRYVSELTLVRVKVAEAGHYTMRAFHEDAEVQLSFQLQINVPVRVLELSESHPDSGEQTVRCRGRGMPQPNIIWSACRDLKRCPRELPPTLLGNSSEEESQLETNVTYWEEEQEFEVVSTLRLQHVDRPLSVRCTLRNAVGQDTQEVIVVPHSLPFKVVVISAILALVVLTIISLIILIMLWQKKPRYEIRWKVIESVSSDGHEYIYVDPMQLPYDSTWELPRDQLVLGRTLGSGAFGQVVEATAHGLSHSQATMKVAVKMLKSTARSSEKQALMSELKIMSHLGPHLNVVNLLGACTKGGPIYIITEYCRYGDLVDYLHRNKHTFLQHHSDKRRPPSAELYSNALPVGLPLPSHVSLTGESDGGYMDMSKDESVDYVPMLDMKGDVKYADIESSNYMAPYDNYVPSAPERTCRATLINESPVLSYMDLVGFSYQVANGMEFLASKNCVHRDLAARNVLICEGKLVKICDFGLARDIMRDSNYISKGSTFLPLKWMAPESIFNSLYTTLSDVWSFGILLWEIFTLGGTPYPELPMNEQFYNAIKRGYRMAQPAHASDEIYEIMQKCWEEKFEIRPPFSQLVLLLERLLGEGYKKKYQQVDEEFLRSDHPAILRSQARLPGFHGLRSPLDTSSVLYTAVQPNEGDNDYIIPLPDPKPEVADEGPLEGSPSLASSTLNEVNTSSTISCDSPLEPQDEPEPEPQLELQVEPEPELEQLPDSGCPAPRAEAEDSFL
Procedure, shortened: as §1

PDGFR-a = PDGFR-a (Homo sapiens, UniProt P16234)
Procedure, shortened: as §1

HIPK3 = HIPK3 (Homo sapiens, UniProt Q9H422)
Procedure, shortened: as §1

Sequence of TIE2 (Q02763 23-1124, species assumed): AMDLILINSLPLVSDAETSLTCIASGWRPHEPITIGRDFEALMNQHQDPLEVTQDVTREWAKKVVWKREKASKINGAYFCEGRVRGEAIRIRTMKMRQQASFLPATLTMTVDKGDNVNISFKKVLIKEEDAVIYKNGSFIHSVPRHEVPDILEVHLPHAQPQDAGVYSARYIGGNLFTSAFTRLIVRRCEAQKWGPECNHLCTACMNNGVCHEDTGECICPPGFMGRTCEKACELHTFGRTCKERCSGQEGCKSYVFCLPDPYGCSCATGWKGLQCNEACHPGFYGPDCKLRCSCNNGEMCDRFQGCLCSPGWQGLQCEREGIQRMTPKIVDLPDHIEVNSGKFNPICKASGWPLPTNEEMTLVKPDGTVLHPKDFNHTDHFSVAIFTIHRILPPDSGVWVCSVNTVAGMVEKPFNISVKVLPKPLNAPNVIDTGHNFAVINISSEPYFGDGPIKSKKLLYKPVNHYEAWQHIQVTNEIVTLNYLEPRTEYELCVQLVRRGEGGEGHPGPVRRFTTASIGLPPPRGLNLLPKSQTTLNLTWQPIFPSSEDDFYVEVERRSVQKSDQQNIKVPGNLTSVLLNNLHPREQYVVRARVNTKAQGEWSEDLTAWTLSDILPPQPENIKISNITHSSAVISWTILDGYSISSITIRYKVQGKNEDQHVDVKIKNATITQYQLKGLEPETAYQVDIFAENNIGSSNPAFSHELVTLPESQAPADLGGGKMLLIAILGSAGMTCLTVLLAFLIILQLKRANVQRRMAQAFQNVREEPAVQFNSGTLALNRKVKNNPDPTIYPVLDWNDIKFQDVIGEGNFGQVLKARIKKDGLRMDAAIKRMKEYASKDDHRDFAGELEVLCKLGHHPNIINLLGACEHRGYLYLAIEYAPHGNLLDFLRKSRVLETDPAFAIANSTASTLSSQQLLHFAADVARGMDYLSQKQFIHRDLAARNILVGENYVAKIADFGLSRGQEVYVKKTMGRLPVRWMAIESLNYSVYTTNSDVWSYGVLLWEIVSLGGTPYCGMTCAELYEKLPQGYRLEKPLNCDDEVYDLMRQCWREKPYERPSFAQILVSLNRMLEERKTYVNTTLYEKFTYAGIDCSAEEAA

Structure (SMILES) | inhibition at 5 µM (TIE2) | inhibition of kinase activity, EPH-A5 (EPH-A5) | inhibition at 5 µM (SRC) | inhibition at 5 µM (MER) | inhibition at 5 µM (P38-b) | inhibition at 5 µM (HIPK4) | inhibition at 5 µM (LCK) | inhibition at 5 µM (PDGFR-b) | inhibition at 5 µM (PDGFR-a) | inhibition at 5 µM (HIPK3)
CNC(=O)c1cc(Oc2ccc(NC(=O)c3nc(OC)oc3-c3ccc(F)cc3)cc2F)ccn1 [Compound 15] | < 50% | D (category D for 50-79) | < 50% | 50 to 79% | < 50% | ≥ 95% | 50 to 79% | < 50% | 50 to 79% | 50 to 79%
CNC(=O)c1cc(Oc2ccc(NC(=O)c3nc(NC)oc3-c3ccc(F)s3)cc2F)ccn1 [Compound 17] | < 50% | E (category E is less than 50%) | < 50% | < 50% | < 50% | ≥ 95% | < 50% | < 50% | < 50% | < 50%
CNC(=O)c1cc(Oc2ccc(NC(=O)c3nc(SC)oc3-c3ccc(F)c(F)c3)cc2)ccn1 [Compound 4] | < 50% | E (category E is less than 50%) | < 50% | 50 to 79% | 50 to 79% | ≥ 95% | 80 to 89% | < 50% | < 50% | 50 to 79%
CNC(=O)c1cc(Oc2ccc(NC(=O)c3nc(NC)sc3-c3ccc(F)cc3C)cc2F)ccn1 [Compound 23] | 50 to 79% | D (category D for 50-79) | < 50% | 50 to 79% | < 50% | 90 to 94% | 80 to 89% | < 50% | < 50% | < 50%
CNC(=O)c1cc(Oc2ccc(NC(=O)c3nc(SC)oc3-c3ccc(F)cc3F)cc2)ccn1 [Compound 6] | 80 to 89% | E (category E is less than 50%) | 80 to 89% | 90 to 94% | < 50% | 90 to 94% | ≥ 95% | < 50% | < 50% | < 50%
CSc1nc(C(=O)Nc2ccc(Oc3cc4cnn(C)c4cc3Br)c(F)c2)c(-c2ccc(F)cc2)o1 [Compound 2] | 50 to 79% | D (category D for 50-79) | < 50% | < 50% | 50 to 79% | ≥ 95% | < 50% | < 50% | < 50% | < 50%
CSc1nc(C(=O)Nc2ccc(Oc3ccnc(N)c3Cl)c(F)c2)c(-c2ccc(F)cc2)o1 [Compound 1] | < 50% | E (category E is less than 50%) | < 50% | < 50% | < 50% | 90 to 94% | < 50% | < 50% | < 50% | < 50%

More lines, now with the values ahead:

inhibition at 5 µM (TIE2) | inhibition of kinase activity, EPH-A5 (EPH-A5) | inhibition at 5 µM (SRC) | inhibition at 5 µM (MER) | inhibition at 5 µM (P38-b) | inhibition at 5 µM (HIPK4) | inhibition at 5 µM (LCK) | inhibition at 5 µM (PDGFR-b) | inhibition at 5 µM (PDGFR-a) | inhibition at 5 µM (HIPK3) | Structure (SMILES)
80 to 89% | C (C=80%-89% at 5 um) | 80 to 89% | 90 to 94% | 50 to 79% | ≥ 95% | 80 to 89% | < 50% | < 50% | < 50% | CNC(=O)c1cc(Oc2ccc(NC(=O)c3nc(SC(C)C)oc3-c3ccc(F)cc3)cc2F)ccn1 [Compound 34]
50 to 79% | E (category E is less than 50%) | 50 to 79% | 80 to 89% | < 50% | ≥ 95% | 50 to 79% | < 50% | < 50% | 50 to 79% | CNC(=O)c1cc(Oc2ccc(NC(=O)c3nc(OCC(F)(F)F)oc3-c3ccc(F)cc3)cc2F)ccn1 [Compound 38]
< 50% | E (category E is less than 50%) | < 50% | < 50% | < 50% | ≥ 95% | < 50% | < 50% | < 50% | < 50% | CSc1nc(C(=O)Nc2ccc(Oc3ccnc(C(=O)NC4CNC4)c3)c(F)c2)c(-c2ccc(F)s2)o1 [Compound 27]
< 50% | E (category E is less than 50%) | < 50% | < 50% | < 50% | ≥ 95% | < 50% | < 50% | < 50% | < 50% | CSc1nc(C(=O)Nc2ccc(Oc3ccnc(C(=O)NC4COC4)c3)c(F)c2)c(-c2ccc(F)c(F)c2)o1 [Compound 37]
< 50% | E (category E is less than 50%) | < 50% | 50 to 79% | 80 to 89% | ≥ 95% | < 50% | < 50% | < 50% | 80 to 89% | CSc1nc(C(=O)Nc2ccc(Oc3ccnc(C(=O)NC4CNC4)c3)c(F)c2)c(-c2ccc(F)cc2)o1 [Compound 29]
< 50% | E (category E is less than 50%) | < 50% | < 50% | < 50% | ≥ 95% | 50 to 79% | < 50% | < 50% | 50 to 79% | [2H]C([2H])([2H])NC(=O)c1cc(Oc2ccc(NC(=O)c3nc(SC)oc3-c3ccc(F)c(F)c3)cc2F)ccn1 [Compound 33]
< 50% | E (category E is less than 50%) | < 50% | < 50% | < 50% | ≥ 95% | < 50% | < 50% | < 50% | < 50% | [2H]C([2H])([2H])NC(=O)c1cc(Oc2ccc(NC(=O)c3nc(SC)oc3-c3ccc(F)s3)cc2F)ccn1 [Compound 35]
< 50% | E (category E is less than 50%) | < 50% | < 50% | < 50% | ≥ 95% | < 50% | < 50% | < 50% | < 50% | CSc1nc(C(=O)Nc2ccc(Oc3ccnc(C(=O)NC4COC4)c3)c(F)c2)c(-c2ccc(F)cc2)o1 [Compound 31]
